In the NIST ThermoML archive (doi:10.1016/j.jct.2012.08.024):
Numbers after ± are expanded uncertainties.

Conditions: 101.33 kPa, Liquid; for viscosity: Capillary tube (Ostwald / Ubbelohde) method; for mass density: Vibrating tube method

Compound	viscosity (298.15 K) [mPa·s]	viscosity (303.15 K) [mPa·s]	mass density (303.15 K) [kg/m3]	viscosity (308.15 K) [mPa·s]	viscosity (313.15 K) [mPa·s]	mass density (313.15 K) [kg/m3]	viscosity (318.15 K) [mPa·s]	viscosity (323.15 K) [mPa·s]	mass density (323.15 K) [kg/m3]	viscosity (328.15 K) [mPa·s]	mass density (298.15 K) [kg/m3]	mass density (308.15 K) [kg/m3]	mass density (318.15 K) [kg/m3]	mass density (328.15 K) [kg/m3]
OCCO [1,2-ethanediol]	16.61 ± 0.23	13.58 ± 0.18	1106.38 ± 0.08	11.24 ± 0.15	9.404 ± 0.13	1099.31 ± 0.08	7.945 ± 0.11	6.774 ± 0.094	1092.16 ± 0.08	5.826 ± 0.081				
CCO [ethanol]	1.087 ± 0.016	0.99 ± 0.02	780.75 ± 0.15	0.905 ± 0.013	0.829 ± 0.012	772.02 ± 0.15	0.761 ± 0.011	0.706 ± 0.01	763.11 ± 0.15	0.648 ± 0.009	785.07 ± 0.15	776.41 ± 0.15	767.59 ± 0.15	758.58 ± 0.16
